Among the test systems are MALME-3M melanoma; SK-MEL-2 melanoma; A498 renal; NCI-H522 lung; SF-268 CNS; HS 578T breast; UO-31 renal; 786-0 renal; TK-10 renal; K-562 leukemia.
Holding throughout (test): growth of human tumour cells (NCI), 48 h

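96-well plates; 48 h exposure; 5 concentrations. Endpoints by linear interpolation between flanking doses. Not reached: highest tested concentration assigned. GI50 marks 50% less growth. The concentration for full growth arrest is given as TGI.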 A value given as a limit tells only on which side of the number the result lay.

Turning to `COc1ccc2c(c1)/C(=N/OC(C)=O)c1c-2cnc2ccccc12`, the GI50 in the assay with MALME-3M melanoma was 16.2 µM; with SK-MEL-2 melanoma, 26.9 µM; with A498 renal, 29.3 µM; in the assay on NCI-H522 lung it was 22.3 µM; in the assay with SF-268 CNS, 24 µM; with HS 578T breast it was 39.8 µM. The GI50 was 22.2 µM with UO-31 renal, 17.8 µM in the assay on 786-0 renal, 20.4 µM in the assay with TK-10 renal and 24.4 µM in the assay with K-562 leukemia. Also, the TGI was 39.1 µM in the assay on MALME-3M melanoma; 64.6 µM in the assay with SK-MEL-2 melanoma; 82 µM with A498 renal; 65.5 µM with NCI-H522 lung; 68.7 µM in the assay with SF-268 CNS; more than 100 µM with HS 578T breast. Besides, the TGI came to 46.6 µM in the assay with UO-31 renal, 33.2 µM in the assay on 786-0 renal, 54.8 µM with TK-10 renal and 73.1 µM in the assay on K-562 leukemia.

These data come from PubChem BioAssay (NCI).
